Laboratory results: patent publication US11446287B2, “Compounds and methods for EP300 or CBP modulation and indications therefor” (Opna Immuno-Oncology SA, priority 2019, dated 2022)
pIC50: −log10 of the molar value.

What follows are compounds tested against T1, Recombinant human BRD4 containing dual bromodomains (BRD4-BD12 (1-477)) (Homo sapiens, UniProt O60885) (assay: BRD4 Alphascreen binding assay).
T1 construct: Recombinant human BRD4 containing dual bromodomains (BRD4-BD12 (1-477)); made in house; host or cells: E. coli BL21-CodonPlus (DE3), modified pET vector
Experimental: BRD4 Alphascreen Binding Assay
Binding of compounds of Formula (I) with BRD4 was assessed using Alphascreen binding assay. The inhibition of the interaction between BRD4 and its acetylated target protein was measured quantitatively using recombinant BRD4 protein, an acetylated Histone 4 peptide, and AlphaScreen™ technology. In absence of inhibition of the BRD4 protein bound to AlphaScreen™ nickel chelate acceptor beads can interact with the acetylated Histone 4 peptide which was immobilized by the AlphaScreen™ Streptavidin coated beads. This interaction brings donor and acceptor beads in proximity. The close proximity allows the singlet oxygen produced by laser excitation of the donor beads to reach the acceptor beads and generate a luminescence signal. BRD4 inhibitors result in a decrease in the proximity signal through an inhibition of the BRD4—acetylated peptide interaction.
Recombinant human BRD4 containing dual bromodomains (BRD4-BD12 (1-477)) was prepared and purified as described in protein expression and purification session. The peptide was human Histone H41-21K5AcK8AcK12AcK16Ac-Biotin (Anaspec CA, USA).
Protocol for BRD4 assay: All components are prepared in buffer composed of 50 mM HEPES pH 7.5, 50 mM NaCl, 0.01% BSA, 0.01% Triton X-100, 2 mM DTT. Test compounds and DMSO vehicle are diluted 1:50 in buffer and a 4 μL volume was transferred to an Alphaplate. 5.5 μL of Bromodomain protein and 5.5 μL of peptide are added to wells containing 4 μL of various concentrations of test compounds of Formula (I) or DMSO vehicle in an Alphaplate (PerkinElmer GA, USA) and incubated for 1 hour at room temperature. 5 μL donor and acceptor bead mixture was then added with final concentrations of 7.5 μg/ml. 30 minutes after bead addition, Alpha signal was read on the Envision spectrometer (λEx 680 nm, λEm 520-620 nm). Final concentrations of bromodomain proteins and peptide are as shown below.
All data were normalized to the mean of 16 high and 16 low control wells on each plate. A four parameter curve fit of the following formula was then applied: Y=A+((B−A)/(1+((C/x)^D))) Where ‘A’ is the minimum, ‘B’ is the maximum, ‘C’ is the IC50 and ‘D’ is the Hill slope. Protein Expression and Purification
Recombinant human BRD4 containing dual bromodomains (BRD4-BD12 (1-477)) was expressed in E. coli cells (in a modified pET vector) with an N-terminal six-His tag and purified using a combination of both IMAC (Ni-affinity) and size exclusion chromatography steps.
Recombinant BRD4 was expressed using the E. coli strain BL21-CodonPlus (DE3) (Agilent Technologies CA, USA). Cells were grown in Terrific Broth (TB) media to an OD600 of 2.0 at 37° C. at which temperature was reduced to 18° C., protein was induced with 0.1 mM isopropyl-β-D-thiogalactopyranoside (“IPTG”) for 12-18 hours and harvested by centrifugation at 8000×g for 20 minutes. Cells were re-suspended in 40 mM Tris-HCl pH 8.0, 0.5 M NaCl, 25 mM Imidazole, 5% glycerol, 1/200 vol. Protease Inhibitor Cocktail Set III (Calbiochem), 5 mM beta-mercaptoethanol (“BME”), 0.5 mg/mL Lysozyme, and 0.5 mg/mL DNaseI, incubated on ice for 30 minutes and lysed with a cell disruptor (MicroFluidics MA, USA). The lysate was clarified by centrifugation at 20,000×g for 2 hours. The protein was captured with Ni-NTA resin (Life Technologies, USA). Contaminating proteins were washed off with 40 mM Tris-HCl pH 8.0, 0.5 M NaCl, 25 mM Imidazole, 5% glycerol, and 5 mM BME. Following 3× wash steps, protein was eluted step wise into wash buffer containing 50, 100, 150, 500 mM Imidazole. The protein was further purified using Gel Filtration column 16/60 Superdex 200 (GE Biosciences NJ, USA) in 10 mM HEPES pH 8.0, 150 mM NaCl, and 5 mM DTT. Glycerol was added to a final concentration of 12% and the protein was aliquoted and flash-frozen in liquid Nitrogen.

First: COc1cc(C(=O)O)cc(OC)c1-c1cn([C@@H](C)c2ccccn2)c2cc(-c3c(C)noc3C)cnc12 [P-0146, (S)-4-(6-(3,5-dimethylisoxazol-4-yl)-1-(1-(pyridin-2-yl)ethyl)-1H-pyrrolo[3,2-b]pyridin-3-yl)-3,5-dimethoxybenzoic acid]
Second: COc1cc(C(=O)O)ccc1-c1cn([C@@H](C)c2ccccn2)c2cc(-c3c(C)noc3C)cnc12 [P-0142, (S)-4-(6-(3,5-dimethylisoxazol-4-yl)-1-(1-(pyridin-2-yl)ethyl)-1H-pyrrolo[3,2-b]pyridin-3-yl)-3-methoxybenzoic acid]
The pIC50 of the first is lower: 3.00 to 5.10 for the first, 6.00 to 10.00 for the second. The second is the more potent here.

First: Cc1noc(C)c1-c1cnc2c(CC3CC3)cn(-c3ccc(C(=O)O)cn3)c2c1 [P-0010, 6-(3-(cyclopropylmethyl)-6-(3,5-dimethylisoxazol-4-yl)-1H-pyrrolo[3,2-b]pyridin-1-yl)nicotinic acid]
Second: COc1ccc(C(=O)O)cc1-n1cc(CC2CCC2)c2ncc(-c3c(C)noc3C)cc21 [P-0098, 3-(3-(cyclobutylmethyl)-6-(3,5-dimethylisoxazol-4-yl)-1H-pyrrolo[3,2-b]pyridin-1-yl)-4-methoxybenzoic acid]
The pIC50 of the first is lower: 3.00 to 5.10 for the first, 5.10 to 6.00 for the second. The second is the more potent here.

`Cc1noc(C)c1-c1cnc2c(c1)c(-c1c(OC(C)C)cc(C(=O)O)cc1OC(C)C)cn2[C@@H](C)c1ccccn1` [P-0118, (S)-4-(5-(3,5-dimethylisoxazol-4-yl)-1-(1-(pyridin-2-yl)ethyl)-1H-pyrrolo[2,3-b]pyridin-3-yl)-3,5-diisopropoxybenzoic acid] and `Cc1noc(C)c1-c1cnc2c(c1)c(-c1ccc(C(=O)O)cc1OC(C)C)cn2[C@@H](C)c1ccccn1` [P-0112, (S)-4-(5-(3,5-dimethylisoxazol-4-yl)-1-(1-(pyridin-2-yl)ethyl)-1H-pyrrolo[2,3-b]pyridin-3-yl)-3-isopropoxybenzoic acid] fall in the same range of pIC50: 3.00 to 5.10 for the first, 3.00 to 5.10 for the second.

`Cc1noc(C)c1-c1cnc2c(C(=O)c3cccc(OC(F)F)c3)cn(-c3c(Cl)cc(C(=O)O)cc3Cl)c2c1` [P-0129, 3,5-dichloro-4-(3-(3-(difluoromethoxy)benzoyl)-6-(3,5-dimethylisoxazol-4-yl)-1H-pyrrolo[3,2-b]pyridin-1-yl)benzoic acid] and `Cc1noc(C)c1-c1cnc2c(C(=O)c3cccc(OC(F)F)c3)cn(-c3ccnc(C(=O)O)c3)c2c1` [P-0099, 4-(3-(3-(difluoromethoxy)benzoyl)-6-(3,5-dimethylisoxazol-4-yl)-1H-pyrrolo[3,2-b]pyridin-1-yl)picolinic acid] fall in the same range of pIC50: 5.10 to 6.00 for the first, 5.10 to 6.00 for the second.

`Cc1noc(C)c1-c1cnc2c(c1)c(-c1ccc(C(=O)O)cc1OCc1ccccc1)cn2[C@@H](C)c1ccccn1` [P-0139, (S)-3-(benzyloxy)-4-(5-(3,5-dimethylisoxazol-4-yl)-1-(1-(pyridin-2-yl)ethyl)-1H-pyrrolo[2,3-b]pyridin-3-yl)benzoic acid] and `CCCOc1cc(C(=O)O)ccc1-c1cn([C@@H](C)c2ccccn2)c2ncc(-c3c(C)noc3C)cc12` [P-0113, (S)-4-(5-(3,5-dimethylisoxazol-4-yl)-1-(1-(pyridin-2-yl)ethyl)-1H-pyrrolo[2,3-b]pyridin-3-yl)-3-propoxybenzoic acid] fall in the same range of pIC50: 3.00 to 5.10 for the first, 3.00 to 5.10 for the second.

`Cc1noc(C)c1-c1cnc2c(CC3CCC3)cn(-c3ccc(O)nc3)c2c1` [P-0143, 5-(3-(cyclobutylmethyl)-6-(3,5-dimethylisoxazol-4-yl)-1H-pyrrolo[3,2-b]pyridin-1-yl)pyridin-2-ol] and `Cc1noc(C)c1-c1cnc2c(Cc3ccccn3)cn(-c3ccc(C(=O)O)cn3)c2c1` [P-0011, 6-(6-(3,5-dimethylisoxazol-4-yl)-3-(pyridin-2-ylmethyl)-1H-pyrrolo[3,2-b]pyridin-1-yl)nicotinic acid] fall in the same range of pIC50: 3.00 to 5.10 for the first, 3.00 to 5.10 for the second.

Compared with `CC[C@@H](c1ccccn1)n1cc(-c2cc(C(=O)O)ccc2Cl)c2ncc(-c3c(C)noc3C)cc21` [P-0148, (S)-4-chloro-3-(6-(3,5-dimethylisoxazol-4-yl)-1-(1-(pyridin-2-yl)propyl)-1H-pyrrolo[3,2-b]pyridin-3-yl)benzoic acid], `Cc1noc(C)c1-c1cnc2c(c1)c(-c1ccc(C(=O)O)cc1OCC(F)(F)F)cn2[C@@H](C)c1ccccn1` [P-0115, (S)-4-(5-(3,5-dimethylisoxazol-4-yl)-1-(1-(pyridin-2-yl)ethyl)-1H-pyrrolo[2,3-b]pyridin-3-yl)-3-(2,2,2-trifluoroethoxy)benzoic acid] is lower in pIC50: 5.10 to 6.00 for the first, 3.00 to 5.10 for the second. The first is the more potent here.

Compared with `Cc1noc(C)c1-c1cnc2c(c1)c(-c1ccc(C(=O)O)cc1OC(F)(F)F)cn2-c1ccccn1` [P-0158, 4-(5-(3,5-dimethylisoxazol-4-yl)-1-(pyridin-2-yl)-1H-pyrrolo[2,3-b]pyridin-3-yl)-3-(trifluoromethoxy)benzoic acid], `Cc1noc(C)c1-c1cnc2c(-c3cccc(C(=O)O)c3)c(C(F)(F)F)n([C@@H](C)c3ccccn3)c2c1` [P-0162, (S)-3-(6-(3,5-dimethylisoxazol-4-yl)-1-(1-(pyridin-2-yl)ethyl)-2-(trifluoromethyl)-1H-pyrrolo[3,2-b]pyridin-3-yl)benzoic acid] is lower in pIC50: 6.00 to 10.00 for the first, 3.00 to 5.10 for the second. The first is the more potent here.

First: CCOc1cc(C(=O)O)cc(OCC)c1-n1cc(C(O)(C2CC2)C2CC2)c2ncc(-c3c(C)noc3C)cc21 [P-0165, 4-(3-(dicyclopropyl(hydroxy)methyl)-6-(3,5-dimethylisoxazol-4-yl)-1H-pyrrolo[3,2-b]pyridin-1-yl)-3,5-diethoxybenzoic acid]
Second: CCOc1cc(C(=O)O)cc(OCC)c1-n1cc(-c2ccccc2)c2ncc(-c3c(C)noc3C)cc21 [P-0168, 4-(6-(3,5-dimethylisoxazol-4-yl)-3-phenyl-1H-pyrrolo[3,2-b]pyridin-1-yl)-3,5-diethoxybenzoic acid]
The pIC50 of the first is lower: 3.00 to 5.10 for the first, 5.10 to 6.00 for the second.

`Cc1noc(C)c1-c1cnc2c(Cc3cccc(Cl)c3)cn(-c3c(Cl)cc(C(=O)O)cc3Cl)c2c1` [P-0128, 3,5-dichloro-4-(3-(3-chlorobenzyl)-6-(3,5-dimethylisoxazol-4-yl)-1H-pyrrolo[3,2-b]pyridin-1-yl)benzoic acid] and `Cc1noc(C)c1-c1cnc2c(-c3ccccc3)cn(-c3c(Cl)cc(C(=O)O)cc3Cl)c2c1` [P-0150, 3,5-dichloro-4-(6-(3,5-dimethylisoxazol-4-yl)-3-phenyl-1H-pyrrolo[3,2-b]pyridin-1-yl)benzoic acid] fall in the same range of pIC50: 5.10 to 6.00 for the first, 5.10 to 6.00 for the second.

First: Cc1noc(C)c1-c1cnc2c(-c3ccccc3C(=O)O)cn(C(C)c3ccccc3)c2c1 (stereo not drawn) [P-0120, 2-(6-(3,5-dimethylisoxazol-4-yl)-1-(1-phenylethyl)-1H-pyrrolo[3,2-b]pyridin-3-yl)benzoic acid]
Second: Cc1noc(C)c1-c1cnc2c(-c3cc(C(=O)O)ccc3C#N)cn(C(C)(c3ccccn3)c3ccccn3)c2c1 [P-0166, 4-cyano-3-(1-(1,1-di(pyridin-2-yl)ethyl)-6-(3,5-dimethylisoxazol-4-yl)-1H-pyrrolo[3,2-b]pyridin-3-yl)benzoic acid]
The pIC50 of the first is lower: 5.10 to 6.00 for the first, 6.00 to 10.00 for the second. The second is the more potent here.

`Cc1noc(C)c1-c1cnc2c(-c3cccc(CC(=O)O)c3)c(C(F)(F)F)n([C@@H](C)c3ccccn3)c2c1` [P-0161, (S)-2-(3-(6-(3,5-dimethylisoxazol-4-yl)-1-(1-(pyridin-2-yl)ethyl)-2-(trifluoromethyl)-1H-pyrrolo[3,2-b]pyridin-3-yl)phenyl)acetic acid] and `Cc1noc(C)c1-c1cnc2c(c1)c(-c1nccc(C(=O)O)n1)cn2[C@@H](C)c1ccccn1` [P-0107, (S)-2-(5-(3,5-dimethylisoxazol-4-yl)-1-(1-(pyridin-2-yl)ethyl)-1H-pyrrolo[2,3-b]pyridin-3-yl)pyrimidine-4-carboxylic acid] fall in the same range of pIC50: 3.00 to 5.10 for the first, 3.00 to 5.10 for the second.
